Data taken from patent US10369138B2, “Monobactam organic compounds for the treatment of bacterial infections” (Novartis AG, priority 2014, dated 2019).
Values after ≈ are worked out from the molar mass of the structure shown. Read-outs that look alike come from different tables or passages of the source.

Columns and labels:
E. coli strain 25922 = test: MIC by broth microdilution, E. coli strain 25922; format: cell-based
Procedure: (§1) Bacterial isolates were cultivated from −70° C. frozen stocks by two consecutive overnight passages at 35° C. in ambient air on 5% blood agar (Remel, Lenexa, Kans.). Quality control and P. aeruginosa ATCC 27853) is from the American Type Culture Collection (ATCC; Rockville, Md.) and PAO1 was received from Dr. K. Poole.
Minimal Inhibitory Concentrations (MICs) were determined by the broth microdilution method in accordance with Clinical and Laboratories Institute (CLSI) guidelines. In brief, fresh overnight bacterial cultures were suspended in sterile saline, and adjusted to a 0.5 McFarland turbidity standard. Bacterial suspensions were then diluted in cation adjusted Mueller-Hinton Broth (MHB II; BBL) to yield a final inoculum of approximately 5×10^5 colony-forming units (CFU)/mL. A master plate of antibiotics was prepared at a concentration equivalent to hundred-fold the highest desired final concentration in 100% dimethyl sulfoxide (DMSO). The master antibiotic plate was then diluted by serial twofold dilution with a multichannel pipette. The resulting dilution series of compounds were diluted 1:10 with sterile water leading to a 10% DMSO final concentration. A volume of 10 μL of the drug dilution series was transferred to 96-well assay plates. Assay plates were inoculated with 90 μL of bacterial suspensions and incubated at 35-37° C. for 20 hrs. The assay plates were read using a microtiter plate reader (Molecular Devices) at 600 nm as well as by visual observation with a reading mirror. The lowest concentration of the compound that prevented visible growth was recorded as the MIC. Performance of the assay was monitored by testing aztreonam against laboratory quality control strains in accordance with guidelines of the CLSI.

E. coli containing KPC-2 = test: MIC by broth microdilution, E. coli containing KPC-2 (Ec KPC2 Iso); format: cell-based; details: Escherichia coli, read-out: Ec KPC2 Iso (MIC), E. coli containing KPC-2 (carbapenemase from Klebsiella pneumoniae)
Procedure: as §1
Strain NB27273 (BW25113 pspB::Km^r) was obtained from the Keio transposon insertion collection. The strain has the pspB gene replaced by a kanamycin resistance marker (BW25113 pspB::Km^r). This strain was cured of the transposon in pspB via FLP recombinase using published methodology. The resulting strain, BW25113 pspB, was used as a host for multicopy vectors expressing key β-lactamases. Multicopy plasmids directing constitutive expression of β-lactamases were established as follows: Synthetic, codon optimized genes encoding E. coli KPC2 and SHV12 β-lactamases were made by DNA2.0 (Palo Alto, Calif.). Each of the synthetic fragments were designed to contain NotI and NcoI restriction sites at their termini, allowing ligation into a NotI/NcoI digested pET28a(+) derivative for protein expression. […] The codon optimized nucleotide sequences and relevant primer recognition information is shown below:
The PCR products were then digested with XhoI and EcoRI and ligated into similarly digested plasmid pAH63-pstS(BlaP). Plasmid pAH63-pstS(BlaP) is a derivative of plasmid pAH63 (J Bacteriol: 183(21): 6384-6393) made by cloning the TEM-1 (bla) promoter and signal peptide encoding region from plasmid pBAD (J Bacteriol. 1995 July 177(14):4121-30) into plasmid pAH63. This fragment was PCR amplified from pBAD using primer pair E192 (ttca[…]) (SEQ ID NO:13) and E194 ([…]) (SEQ ID NO:14), digested with PstI and BamHI and inserted into similarly digested plasmid pAH63. Therefore, expression of β-lactamases from pAH63-pstS(BlaP) based constructs is constitutive and the signal sequence is provided to direct these proteins to the periplasm. Plasmid pAH63 based vectors are used for insertion into the genome in single copy, however, to provide higher expression levels to allow more sensitive detection of the susceptibility of compounds to the β-lactamases, the expression inserts contained in these vectors were moved to the replicative multicopy vector pBAD-Kan (J Bacteriol. 1995 July 177(14):4121-30). To accomplish this, the inserts encompassing the β-lactamase genes, with the associated TEM promoter and signal sequences, were PCR amplified from their corresponding vectors using primer E269 (ccg[…]) (SEQ ID NO:15) and E202 (aatc[…]) (SEQ ID NO:16) for the KPC2 construct and E204 (aatc[…]) (SEQ ID NO:17) for the SHV12 construct. These fragments were then digested with XbaI and EcoRI, and each was inserted into pBAD18-kan that had been digested with the same enzymes to generate a pair of multicopy vectors expressing KPC2 and SHV12 respectively. These vectors were transformed into BW25113 pspB to generate strains NB27273-CDY0033 (expressing KPC2) and NB27273-CDY0030 (expressing SHV12). The pBAD18-kan vector also contains the TEM promoter region and signal sequence, (but lacks any intact β-lactamase genes) and was transformed into BW25113 pspB using standard protocols to generate the control strain NB27273-CDY0026. Expression of the β-lactamases was confirmed by verifying decreased susceptibility to example test antibiotics that are known substrates of KPC2 or SHV12. Susceptibility Testing
Minimal Inhibitory Concentrations (MICs) were determined by the broth microdilution method in accordance with Clinical and Laboratories Institute (CLSI) guidelines. In brief, fresh overnight bacterial cultures were suspended in sterile saline, and adjusted to a 0.5 McFarland turbidity standard. Bacterial suspensions were then diluted in cation adjusted Mueller-Hinton Broth (MHB II; BBL) to yield a final inoculum of approximately 5×10^5 colony-forming units (CFU)/mL. […]

[1] = Escherichia coli, 25922, E. coli strain 25922, read-out: Ec 25922 (MIC)

Structure (SMILES)	MIC (E. coli strain 25922; [1]) [µg/mL]	MIC (E. coli containing KPC-2) [µg/mL]	MIC (E. coli strain 25922; Escherichia coli, 25922, read-out: Ec 25922 (MIC)) [µg/mL]
N=C(NCc1cnn(C[C@@H]2[C@H](NC(=O)/C(=N\OC3(C(=O)O)CC3)c3csc(N)n3)C(=O)N2S(=O)(=O)O)n1)N[C@H]1C[C@H](N)C1 [Example 125, 1-(((Z)-(2-(((2R,3S)-2-((4-((3-((1 r,3R)-3-aminocyclobutyl)guanidino)methyl)-2H-1,2,3-triazol-2-yl)methyl)-4-oxo-1-sulfoazetidin-3-yl)amino)-1-(2-aminothiazol-4-yl)-2-oxoethylidene)amino)oxy)cyclopropanecarboxylic acid]	0.25 (≈ 0.39 µM)	0.5 (≈ 0.78 µM)	–
CC(NCCCN)c1cnn(C[C@@H]2[C@H](NC(=O)/C(=N\OC3(C(=O)O)CC3)c3csc(N)n3)C(=O)N2S(=O)(=O)O)n1 (stereo partly drawn) [Example 151, 1-(((Z)-(2-(((2R,3S)-2-((4-(1-((3-aminopropyl)amino)ethyl)-2H-1,2,3-triazol-2-yl)methyl)-4-oxo-1-sulfoazetidin-3-yl)amino)-1-(2-aminothiazol-4-yl)-2-oxoethylidene)amino)oxy)cyclopropanecarboxylic acid]	0.5 (≈ 0.832 µM)	0.5 (≈ 0.832 µM)	–
CC(C)(O/N=C(\C(=O)N[C@@H]1C(=O)N(S(=O)(=O)O)[C@@H]1Cn1ncc(COS(=O)(=O)O)n1)c1csc(N)n1)C(=O)O [Example 38, 2-(((Z)-(1-(2-aminothiazol-4-yl)-2-oxo-2-(((3S,4R)-2-oxo-1-sulfo-4-((4-((sulfooxy)methyl)-2H-1,2,3-triazol-2-yl)methyl)azetidin-3-yl)amino)ethylidene)amino)oxy)-2-methylpropanoic acid]	8 (≈ 13.1 µM)	4 (≈ 6.53 µM)	–
NCCNC(=O)NC[C@@H]1CN(C[C@@H]2[C@H](NC(=O)/C(=N\OC3(C(=O)O)CC3)c3csc(N)n3)C(=O)N2S(=O)(=O)O)C(=O)O1 [Example 111, 1-(((Z)-(2-(((2R,3S)-2-(((R)-5-((3-(2-aminoethyl)ureido)methyl)-2-oxooxazolidin-3-yl)methyl)-4-oxo-1-sulfoazetidin-3-yl)amino)-1-(2-aminothiazol-4-yl)-2-oxoethylidene)amino)oxy)cyclopropanecarboxylic acid]	≤ 0.06	≤ 0.06	–
CC(C)(O/N=C(\C(=O)N[C@@H]1C(=O)N(S(=O)(=O)O)[C@@H]1Cn1nnc(CNC(=N)N)n1)c1csc(N)n1)C(=O)O [Example 5, 2-(((Z)-(1-(2-aminothiazol-4-yl)-2-(((2R,3S)-2-((5-(guanidinomethyl)-2H-tetrazol-2-yl)methyl)-4-oxo-1-sulfoazetidin-3-yl)amino)-2-oxoethylidene)amino)oxy)-2-methylpropanoic acid]	1 (≈ 1.74 µM)	4 (≈ 6.96 µM)	–
Nc1nc(/C(=N/OC2(C(=O)O)CC2)C(=O)N[C@@H]2C(=O)N(S(=O)(=O)O)[C@@H]2Cn2ncc(CN[C@H]3C[C@H](N)C3)n2)cs1 [Example 93, 1-(((Z)-(2-(((2R,3S)-2-((4-((((1 r,3R)-3-aminocyclobutyl)amino)methyl)-2H-1,2,3-triazol-2-yl)methyl)-4-oxo-1-sulfoazetidin-3-yl)amino)-1-(2-aminothiazol-4-yl)-2-oxoethylidene)amino)oxy)cyclopropanecarboxylic acid]	0.25 (≈ 0.418 µM)	0.5 (≈ 0.835 µM)	–
N=C(NCCCN)NCc1cn(C[C@@H]2[C@H](NC(=O)/C(=N\OC3(C(=O)O)CC3)c3csc(N)n3)C(=O)N2S(=O)(=O)O)nn1 [Example 120, 1-(((Z)-(2-(((2R,3S)-2-((4-((3-(3-aminopropyl)guanidino)methyl)-1H-1,2,3-triazol-1-yl)methyl)-4-oxo-1-sulfoazetidin-3-yl)amino)-1-(2-aminothiazol-4-yl)-2-oxoethylidene)amino)oxy)cyclopropanecarboxylic acid]	0.25 (≈ 0.398 µM)	0.5 (≈ 0.795 µM)	–
Cc1nn(C[C@@H]2[C@H](NC(=O)/C(=N\OC3(C(=O)O)CC3)c3csc(N)n3)C(=O)N2S(=O)(=O)O)nc1CNC(=N)NCCCN [Example 144, 1-(((Z)-(2-(((2R,3S)-2-((4-((3-(3-aminopropyl)guanidino)methyl)-5-methyl-2H-1,2,3-triazol-2-yl)methyl)-4-oxo-1-sulfoazetidin-3-yl)amino)-1-(2-aminothiazol-4-yl)-2-oxoethylidene)amino)oxy)cyclopropanecarboxylic acid]	1 (≈ 1.56 µM)	1 (≈ 1.56 µM)	–
CC(C)(O/N=C(\C(=O)N[C@@H]1C(=O)N(S(=O)(=O)O)[C@@H]1CN1C[C@H](CO)OC1=O)c1csc(N)n1)C(=O)O [Example 72, 2-(((Z)-(1-(2-aminothiazol-4-yl)-2-(((2R,3S)-2-(((R)-5-(hydroxymethyl)-2-oxooxazolidin-3-yl)methyl)-4-oxo-1-sulfoazetidin-3-yl)amino)-2-oxoethylidene)amino)oxy)-2-methylpropanoic acid]	4 (≈ 7.27 µM)	4 (≈ 7.27 µM)	–
CC(C)(O/N=C(\C(=O)N[C@@H]1C(=O)N(S(=O)(=O)O)[C@@H]1Cn1cc(C(=O)O)nn1)c1csc(N)n1)C(=O)O [Example 51, 1-(((2R,3S)-3-((Z)-2-(2-aminothiazol-4-yl)-2-(((2-carboxypropan-2-yl)oxy)imino)acetamido)-4-oxo-1-sulfoazetidin-2-yl)methyl)-1H-1,2,3-triazole-4-carboxylic acid]	> 64	16 (≈ 29.3 µM)	–
CN(Cc1ccccc1)Cc1cnn(C[C@@H]2[C@H](NC(=O)/C(=N\OC(C)(C)C(=O)O)c3csc(N)n3)C(=O)N2S(=O)(=O)O)n1 [Example 83, 2-(((Z)-(1-(2-aminothiazol-4-yl)-2-(((2R,3S)-2-((4-((benzyl(methyl)amino)methyl)-2H-1,2,3-triazol-2-yl)methyl)-4-oxo-1-sulfoazetidin-3-yl)amino)-2-oxoethylidene)amino)oxy)-2-methylpropanoic acid]	32 (≈ 50.3 µM)	32 (≈ 50.3 µM)	–
Nc1nc(/C(=N/OC2(C(=O)O)CC2)C(=O)N[C@@H]2C(=O)N(S(=O)(=O)O)[C@@H]2Cn2ncc(CNC3CNC3)n2)cs1 [Example 103, 1-(((Z)-(1-(2-aminothiazol-4-yl)-2-(((2R,3S)-2-((4-((azetidin-3-ylamino)methyl)-2H-1,2,3-triazol-2-yl)methyl)-4-oxo-1-sulfoazetidin-3-yl)amino)-2-oxoethylidene)amino)oxy)cyclopropanecarboxylic acid]	0.25 (≈ 0.428 µM)	–	–
NCC1CN(C[C@@H]2[C@H](NC(=O)/C(=N\OC3(C(=O)O)CC3)c3csc(N)n3)C(=O)N2S(=O)(=O)O)C(=O)N1 (stereo partly drawn) [Example 122, 1-(((Z)-(2-(((2R,3S)-2-((4-(aminomethyl)-2-oxoimidazolidin-1-yl)methyl)-4-oxo-1-sulfoazetidin-3-yl)amino)-1-(2-aminothiazol-4-yl)-2-oxoethylidene)amino)oxy)cyclopropanecarboxylic acid]	≤ 0.06	–	0.125 (≈ 0.229 µM)
